Experimental data as given in patent publication US9861625B2, “Methods and compositions for treating cancer through inhibition of PI3K” (Duke University, priority 2014, dated 2018).

Tests used:
Assay type in all cases: cell-based
BL41 = test: MTT cell viability assay; conditions: Homo sapiens, BL-41; BL41, Burkitt Lymphoma, RPMI 10% FBS
Source text: (§1) A total of 60 cell lines representative of different cancer types were obtained from the ATCC and grown and maintained in accordance with the provided guidelines. The cell lines represented the following distinct histologies: mantle cell lymphoma (5 lines: JVM13, Rec1, Mino, JVM2, Jeko); germinal center B-cell derived (“GCB”) DLBCL (19 lines: Farage, BJAB, Ly1, Ly2, Ly7, Ly8, Ly19, HBL2, HT, Karpas422, Pfeiffer, RCK8, RL, Sci-1, Ski, SUDHL4, SUDHL7, Toledo, WSU-NHL); primary mediastinal B-cell lymphoma (“PMBL”) (3 lines: K1106, MEDB1, U2940); Burkitt lymphoma (11 lines: Daudi, CA46, EB1, EB2, EB3, Jijoye, Raji, Ramos, Namwala, BL2, BL41); Hodgkin lymphoma (3 lines: RMPI6666, L1236, L428); activated B-cell derived (“ABC”) DLBCL (6 lines: Ly3, HBL1, TMD8, Ly10, Riva, U2932); multiple myeloma (6 lines: U266, SKMM1, RPMI8226, KMS12, IM9, H929); acute myelogenous leukemia (“AML”) (2 lines: U937, KG1); acute lymphoblastic leukemia (“ALL”) (2 lines: Reh, SR); and T-cell lymphoma (3 lines: Molt4, RPMI8402, Jurkat). The cell lines were tested within six months after resuscitation.
(§2) The 3-(4,5-dimethylthiazol-2-yl)-2,5-diphenyltetrazolium bromide (MTT) cell viability assay was used to determine cell viability in response to drug treatment. Five replicates per concentration tested were carried out in serial dilutions with a total of ten concentrations with a 50% reduction in drug concentration per dilution for each plate. A total of 15 μl of MTT reagent was added to each drug-treated well and incubated for three hours in 37° C. Detergent was added to each drug-treated well and incubated overnight at room temperature without exposure to light. Absorbance was measured at 570 nm using a plate reader from Tecan Group. The IC50 concentration was determined using the publicly available ED50 plus v1.0 software program.

CA46 = test: MTT cell viability assay; conditions: Homo sapiens; CA46, Burkitt Lymphoma, RPMI 10% FBS
Source text: as §1, §2

EB2 = test: MTT cell viability assay; conditions: Homo sapiens; EB2, Burkitt Lymphoma, RPMI 10% FBS
Source text: as §1, §2

Farage = test: MTT cell viability assay; conditions: GCB DLBCL, RPMI 10% FBS
Source text: as §1, §2

HBL1 = test: MTT cell viability assay; conditions: HBL1, ABC DLBCL, RPMI 10% FBS
Source text: as §1, §2

K1106 = test: MTT cell viability assay; conditions: K1106, PMBL, RPMI 15% FBS
Source text: as §1, §2

KG1 = test: MTT cell viability assay; conditions: Homo sapiens, KG-1; KG1, AML, IMDM 20% FBS
Source text: as §1, §2

Karpas422 = test: MTT cell viability assay; conditions: Homo sapiens, KARPAS-422; Karpas422, GCB DLBCL, RPMI 10% FBS
Source text: as §1, §2

L1236 = test: MTT cell viability assay; conditions: L-1236; L1236, Hodgkin Lymphoma, RPMI 10% FBS
Source text: as §1, §2

LY19 = test: MTT cell viability assay; conditions: LY19, GCB DLBCL, OCI
Source text: as §1, §2

LY1 = test: MTT cell viability assay; conditions: LY1, GCB DLBCL, OCI
Source text: as §1, §2

Mino = test: MTT cell viability assay; conditions: Homo sapiens, MantleCellLymphoma, RPMI 10% FBS
Source text: as §1, §2

Molt 4 = test: MTT cell viability assay; conditions: Homo sapiens; Molt 4, T-cell, RPMI 10% FBS
Source text: as §1, §2

SR = test: MTT cell viability assay; conditions: Homo sapiens, ALL, RPMI 10% FBS
Source text: as §1, §2

Sci-1 = test: MTT cell viability assay; conditions: Sci-1, GCB DLBCL, RPMI 10% FBS
Source text: as §1, §2

U2932 = test: MTT cell viability assay; conditions: Homo sapiens; U2932, ABC DLBCL, RPMI 10% FBS
Source text: as §1, §2

WSUNHL = test: MTT cell viability assay; conditions: Homo sapiens, WSU-NHL, GCB DLBCL, RPMI 10% FBS
Source text: as §1, §2

[1] = tested on: PI3K pathway (p-AKT, p-S6, p-GSKalpha, p-GSKbeta) in BJAB DLBCL cells; test: Confirmation of pathway downregulation (Western blot) in BJAB; conditions: for inhibition of the PI3K pathway: BJAB, time-course and dose-escalation experiments
Procedure: RIPA lysis buffer (1×PBS, 1% NP-40, 0.5% sodium deoxycholate, 0.1% SDS, 10 mmol/L sodium orthovanadate) was added to 750,000 cells and incubate on ice for 30 minutes. The mixture was spun down, and the supernatant was transferred to a new tube as the whole-cell extract. A total of 20 μg cell lysate was separated on a 4% to 18% Tris-Bis NuPAGE gel (Invitrogen) and transferred using the iBlot transfer device (Invitrogen) program 3 for seven minutes. The blots were probed with a 1:100 p-AKT, 1:1000 total AKT, 1:100p-GSK3alpha, 1:100 p-GSK3beta, or 1:100 p-s6 (Cell Signaling), or 1:5000 goat anti-β-actin (SC-47778, Santa Cruz Biotech) for one hour at room temperature. The antibodies were detected by the use of 1:10,000 goat anti-mouse-HRP conjugated antibodies (Santa Cruz Biotech). Western Blotting Luminol Reagent (Santa Cruz Biotech) was used to visualize the bands corresponding to each antibody.
One million BJAB DLBCL cells were treated with increasing doses of BEZ235, and, after six hours, the cells were analyzed for a dose-dependent effect at 15, 30, 60, 125, 250, and 500 nmol/L concentrations. Cell count and viability were measured for each concentration. […] Western blot analyses were performed to assess phosphorylation of AKT, GSK3alpha, GSK3beta, and S6.
Inhibition of the PI3K pathway by the three PI3K inhibitors was confirmed through separate time-course and dose-escalation experiments, as well as by measuring the expression of key downstream members of the pathway. The drugs were tested in the BJAB DLBCL for their effects on p-AKT, p-S6, p-GSKalpha, and p-GSKbeta. […] An associated decrease in cell viability was ruled out by quantifying the proportion of viable cells at each time point using trypan blue staining.

Row | IC50 (Karpas422) | IC50 (Molt 4) | SMILES | IC50 (BL41) | IC50 (CA46) | IC50 (EB2) | IC50 (Farage) | IC50 (HBL1) | IC50 (K1106) | IC50 (KG1) | IC50 (L1236) | IC50 (LY19) | IC50 (LY1) | IC50 (Mino) | IC50 (SR) | IC50 (Sci-1) | IC50 (U2932) | IC50 (WSUNHL) | down regulation of PI3K targets, time course ([1]; 30 nmol/L BEZ235, three and six hours after treatment, total AKT and actin unchanged) | inhibition of the PI3K pathway [1]
1 | 22 nM | 168 nM | Cn1c(=O)n(-c2ccc(C(C)(C)C#N)cc2)c2c3cc(-c4cnc5ccccc5c4)ccc3ncc21 [BEZ235] | 11.6 nM | 28.4 nM | 70.2 nM | 509 nM | 71.7 nM | 536 nM | 79.9 nM | 60 nM | 224 nM | 16.4 nM | 60.8 nM | 64.2 nM | 35 nM | 96.1 nM | 16.2 nM | time-dependent down regulation | directly inhibit the PI3K pathway
2 | 85.3 nM | 8 nM | COc1ccc(-c2ccc3ncc4c(c3c2)n(-c2ccc(N3CCNCC3)c(C(F)(F)F)c2)c(=O)n4C)cn1 [BGT226] |  | 27.6 nM | 199 nM | 162 nM |  | 18.2 nM | 25.1 nM | 12.4 nM | 33.3 nM |  | 10.5 nM |  | 24.5 nM |  |  |  | directly inhibit the PI3K pathway
3 | 2080 nM | 1110 nM | Nc1cc(C(F)(F)F)c(-c2cc(N3CCOCC3)nc(N3CCOCC3)n2)cn1 [BKM120] | 5030 nM | 729 nM | 1070 nM | 752 nM | 1670 nM | 1870 nM | 724 nM | 1120 nM | 1890 nM | 382 nM | 460 nM | 807 nM | 985 nM | 5360 nM | 1260 nM |  | directly inhibit the PI3K pathway
